Legend:
Format in all cases: cell-based, human
[1] = system: U87 cells; assay: U87 cell viability (Trypan Blue dye exclusion, MTS); conditions: 10 ng/mL TNFα and/or 100 μM TMZ
Protocol: Trypan Blue dye exclusion method was employed. 10^4 U87 cells were plated and incubated at 37° C. overnight. Subsequently, the cells were contacted with media containing TNFα (10 ng/mL) and/or TMZ (100 μM), incubated for 3 h, and washed. […] All of the studies were performed in triplicate.

[2] = system: U87 cells; assay: Flow cytometric analysis of apoptosis (fractional DNA content, annexin V binding); conditions: fractional DNA content, TMZ 100 μM
Protocol: Fractional DNA content: U87 cells (10^5) were plated overnight at 37° C. with 5% CO2. The cells were then treated with TNFα (10 ng/mL) and/or TMZ (100 μM). At 72 h the cells were washed in PBS and fixed in ice-cold 70% (v/v) ethanol. The cells were washed twice and incubated in RNase (1 mg/mL) for 30 m at 37° C., then incubated in propidium iodide (PI) solution (100 ug/mL) for […] at 4° C. Flow cytometric analysis was performed on a FACSort instrument (Becton Dickinson Immunocytometry Systems, San Jose, Calif.), and the data were analyzed using the CellQuest software (Becton Dickinson).
Annexin V binding (van Engeland, M. et al. (1998) Cytometry 31(1):1-9): At 72 h cells were washed in PBS and incubated in the dark for 15 m with binding buffer containing 5 μl of Annexin V-FITC and 5 μl of PI (Annexin V-FITC apoptosis detection kit II). The data was analyzed by Flowjo analysis software (Tree Star Inc., Ashland, Oreg.).
Cells were either un-transfected or co-transfected with pRC-CMV-p65 or pRC-CMV in the presence of a GFP plasmid at a ratio of 4:1. Under these conditions, cells expressing GFP also expressed the co-transfected plasmid (Tang, F. et al. (2002) Mol Cell Biol 22:8571-8579). Cells were then left untreated or treated as described in the figure legends. At 72 h cells were washed in PBS and incubated in the dark for 15 m with binding buffer containing 5 μl of Annexin V-FITC and 5 μl of Propidium iodide (PI). In transfected cells, annexin V binding was assessed in GFP positive cells. Data was analyzed by Flowjo analysis software (Tree Star Inc., Ashland, Oreg., USA) as described in U.S. Provisional Application No. 60/604,251 (Yamini, B. et al. (2004) Cancer Res 64:6381-6384).

[3] = system: NF-κB in BxPC-3 pancreatic cancer cells; assay: NF-κB-responsive luciferase reporter assay, BxPC-3
[4] = system: NF-κB; assay: NF-κB nuclear translocation and DNA binding (nuclear extracts, EMSA)
Protocol: Confluent cultures of U87 cells were grown in complete medium and then left untreated or treated with 10 ng/mL TNFα for 20 m and 1 h+/−16 h pre-treatment with 100 μM TMZ (or 0.1% DMSO control vehicle). Cells were then washed with 10 mL ice-cold PBS, scraped from the dish, and pelleted by centrifugation at 1000 rpm for 5 m at 4° C. Cell pellets were resuspended in 400 μl of ice-cold buffer A (10 mM HEPES, pH 7.9; 10 mM KCl; 0.1 mM EDTA; 1 mM DTT; 0.5 mM phenylmethysulfonylfluoride [PMSF]; 1 μg/mL leupeptin; 5 μg/mL aprotinin) and allowed to swell on ice for 15 m. Following the addition of 25 μl of 10% NP-40, the suspension was vortexed for 10 s and centrifuged at 14,500 rpm for 1 m at 4° C. Nuclei were resuspended in 50 μl of ice-cold buffer B (20 mM HEPES, pH 7.9; […]; 1 mM EDTA; 1 mM DTT; 1 mM PMSF; 25% glycerol; 1 μg/mL leupeptin; 5 μg/mL aprotinin) and incubated on ice for 15 m. […] Protein concentrations for each sample were determined by the Bradford method (Bio-Rad, Richmond, Calif., USA) and were adjusted to 2 μg/μl by the addition of buffer B. […]
20 μg of whole U87 cell (or nuclear) lysate was subjected to sodium dodecyl sulfate (SDS)-polyacrylamide gel electrophoresis (PAGE). […] Immunoreactive bands were detected by SuperSignal enhanced chemiluminescence (ECL) (Pierce, Rockford, Ill., USA) and exposed to Kodak X-Omat film.

[5] = system: JNK; assay: JNK phosphorylation (activation), Western blot; conditions: glioma cells
Protocol: 20 μg of whole U87 cell (or nuclear) lysate was subjected to sodium dodecyl sulfate (SDS)-polyacrylamide gel electrophoresis (PAGE). Following electro-transfer, Immobilon-P membranes (Millipore Corp. Burlington, Mass., USA.) were probed with primary polyclonal antibody against IκBα, phospho-Ser32-IκBα, SAPK/JNK, phospho-Thr183/Tyr185-SAPK/JNK, p65, phospho-Ser536-p65 (Cell Signaling Technology Inc. Beverly, […]., USA) diluted 1:1000 overnight at 4° C. Anti-rabbit IgG HRP-linked secondary antibody (Cell Signaling Technology) was diluted 1:1000 in blocking buffer and applied for 1 h at room temperature. Immunoreactive bands were detected by SuperSignal enhanced chemiluminescence (ECL) (Pierce, Rockford, Ill., USA) and exposed to Kodak X-Omat film.

Question: With `Cn1nnc2c(C(N)=O)ncn2c1=O` [TMZ, temozolomide] as the compound, how does the “effect on U87 cell viability” value [1] read?
Answer: Minimal effects

Question: What about the cell cycle distribution [2] of the same compound?
Answer: increase in the percentage of cells in G2/M phase

Question: And the “TNFα-induced NF-κB transcriptional activity” value [3]?
Answer: activated

Question: What about the “TNFα-induced NF-κB DNA binding” value [4] of the same compound?
Answer: does not directly affect

Question: What about the “TNFα-induced NF-κB nuclear translocation” value ([4]; glioma cells) of the same compound?
Answer: inhibiting NF-κB nuclear translocation

Question: And the “JNK phosphorylation (activation)” value [5]?
Answer: progressive and delayed activation

— patent US20110091375A1, “USE OF THE COMBINATION COMPRISING TEMOZOLOMIDE AND TNF-ALPHA FOR TREATING GLIOBLASTOMA” (THE UNIVERSITY OF CHICAGO, priority 2004, published 2011)
